Source: PubChem BioAssay AID256 (DTP/NCI, 2004)
Inconclusive results and toxic doses are left out.

Test system: CD2F1 mice, L1210 leukemia ip, survival T/C
Assay: NCI In Vivo Anticancer Drug Screen. Data for tumor model L1210 Leukemia (intraperitoneal) in CD2F1 (CDF1) mice
Conditions: higher = longer survival
Summary of the method: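 Vehicle-treated tumor-bearing mice served as controls (C) for compound-treated mice (T). Reported figure is T divided by C.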

[1] = endpoint: mean survival time, dose: 100.0 mg/kg/injection, schedule: Q01DX001 (ip), vehicle: saline with Tween-80
[2] = endpoint: mean survival time, dose: 400.0 mg/kg/injection, schedule: Q01DX001 (ip), vehicle: saline with Tween-80
[3] = endpoint: mean survival time, dose: 100.0 mg/kg/injection, schedule: Q01DX009 (ip), vehicle: saline with Tween-80
[4] = endpoint: mean survival time, dose: 200.0 mg/kg/injection, schedule: Q01DX001 (ip), vehicle: saline with Tween-80
[5] = endpoint: mean survival time, dose: 200.0 mg/kg/injection, schedule: Q01DX009 (ip), vehicle: saline with Tween-80
[6] = endpoint: mean survival time, dose: 400.0 mg/kg/injection, schedule: Q01DX009 (ip), vehicle: saline with Tween-80
[7] = endpoint: mean survival time, dose: 100.0 mg/kg/injection, schedule: Q04DX002 (ip), vehicle: saline with Tween-80
[8] = endpoint: mean survival time, dose: 25.0 mg/kg/injection, schedule: Q04DX002 (ip), vehicle: saline with Tween-80
[9] = endpoint: mean survival time, dose: 50.0 mg/kg/injection, schedule: Q04DX002 (ip), vehicle: saline with Tween-80
[10] = endpoint: mean survival time, dose: 100.0 mg/kg/injection, schedule: Q04DX003 (ip), vehicle: saline with Tween-80
[11] = endpoint: mean survival time, dose: 200.0 mg/kg/injection, schedule: Q04DX003 (ip), vehicle: saline with Tween-80
[12] = endpoint: mean survival time, dose: 400.0 mg/kg/injection, schedule: Q04DX003 (ip), vehicle: saline with Tween-80
[13] = endpoint: mean survival time, dose: 75.0 mg/kg/injection, schedule: Q01DX001 (ip), vehicle: saline

SMILES: CN(C)P1(=O)NCC(C(C)(C)C)CO1 (centres undefined)
- T/C (endpoint: mean survival time, dose: 15.63 mg/kg/injection, schedule: Q01DX001 (ip), vehicle: water): 97 % of control
- T/C (endpoint: mean survival time, dose: 31.25 mg/kg/injection, schedule: Q01DX001 (ip), vehicle: water): 97 % of control
- T/C (endpoint: mean survival time, dose: 62.5 mg/kg/injection, schedule: Q01DX001 (ip), vehicle: water): 97 % of control
- T/C (endpoint: mean survival time, dose: 125.0 mg/kg/injection, schedule: Q01DX001 (ip), vehicle: water): 97 % of control
- T/C (endpoint: mean survival time, dose: 250.0 mg/kg/injection, schedule: Q01DX001 (ip), vehicle: water): 101 % of control

SMILES: Cc1cc(C)c(C#[N+][O-])c(C)c1
- T/C (endpoint: mean survival time, dose: 12.5 mg/kg/injection, schedule: Q01DX009 (ip), vehicle: saline with Tween-80): 97 % of control
- T/C (endpoint: mean survival time, dose: 25.0 mg/kg/injection, schedule: Q01DX009 (ip), vehicle: saline with Tween-80): 94 % of control
- T/C (endpoint: mean survival time, dose: 50.0 mg/kg/injection, schedule: Q01DX009 (ip), vehicle: saline with Tween-80): 91 % of control

SMILES: O=c1[nH]cc(S(=O)(=O)Nc2ccccc2)c(=O)[nH]1
- T/C [1]: 88 % of control
- T/C [2]: 96 % of control

SMILES: [Br][Pt+2][Br].[NH-]CC(=O)O.[NH-]CC(=O)O
- T/C (endpoint: mean survival time, dose: 25.0 mg/kg/injection, schedule: Q01DX009 (ip), vehicle: Klucel (hydroxypropylcellulose) (HPC)): 101 % of control
- T/C (endpoint: mean survival time, dose: 50.0 mg/kg/injection, schedule: Q01DX009 (ip), vehicle: Klucel (hydroxypropylcellulose) (HPC)): 90 % of control
- T/C (endpoint: mean survival time, dose: 50.0 mg/kg/injection, schedule: Q04DX003 (ip), vehicle: Klucel (hydroxypropylcellulose) (HPC)): 96 % of control
- T/C (endpoint: mean survival time, dose: 100.0 mg/kg/injection, schedule: Q01DX009 (ip), vehicle: Klucel (hydroxypropylcellulose) (HPC)): 86 % of control
- T/C (endpoint: mean survival time, dose: 100.0 mg/kg/injection, schedule: Q04DX003 (ip), vehicle: Klucel (hydroxypropylcellulose) (HPC)): 102 % of control
- T/C (endpoint: mean survival time, dose: 200.0 mg/kg/injection, schedule: Q04DX003 (ip), vehicle: Klucel (hydroxypropylcellulose) (HPC)): 95 % of control

SMILES: CC(=O)Nc1cc2ccccc2c2ccc3ccccc3c12
- T/C [1]: 89 % of control
- T/C [3]: 96 % of control
- T/C [4]: 93 % of control
- T/C [5]: 95 % of control
- T/C [2]: 102 % of control
- T/C [6]: 96 % of control

SMILES: CC(CO)CCC(=O)C(C)C1C2(CC3C4CCC5CC(O)CCC5(C)C4CCC31C)SCCS2 (centres undefined)
- T/C [7]: 86 % of control
- T/C (endpoint: mean survival time, dose: 400.0 mg/kg/injection, schedule: Q04DX002 (ip), vehicle: saline with Tween-80): 92 % of control

SMILES: CC1C[C@@H](O)C(NC(=O)N(CCCl)N=O)[C@@H](O)C1 (some centres undefined)
- T/C (endpoint: mean survival time, dose: 6.0 mg/kg/injection, schedule: Q01DX001 (ip), vehicle: saline): 191 % of control
- T/C (endpoint: mean survival time, dose: 9.0 mg/kg/injection, schedule: Q01DX001 (ip), vehicle: saline): 367 % of control
- T/C (endpoint: mean survival time, dose: 13.0 mg/kg/injection, schedule: Q01DX001 (ip), vehicle: saline): 297 % of control
- T/C (endpoint: mean survival time, dose: 20.0 mg/kg/injection, schedule: Q01DX001 (ip), vehicle: saline): 500 % of control
- T/C (endpoint: mean survival time, dose: 30.0 mg/kg/injection, schedule: Q01DX001 (ip), vehicle: saline): 298 % of control

SMILES: O=C1CSC1=C(c1ccccc1)c1ccccc1
- T/C (endpoint: mean survival time, dose: 12.5 mg/kg/injection, schedule: Q04DX002 (ip), vehicle: saline with Tween-80): 94 % of control
- T/C [8]: 94 % of control
- T/C [9]: 94 % of control

SMILES: NC(CCCCNCC(CNCCCCC(N)C(=O)O)C(=O)O)C(=O)O (centres undefined)
- T/C [8]: 105 % of control
- T/C [9]: 98 % of control
- T/C [7]: 94 % of control

SMILES: C1CC[N-]CC1.C1CC[N-]CC1.C1CC[N-]CC1.C1CC[N-]CC1.[Co].[N-]=C=S.[N-]=C=S
- T/C [7]: 123 % of control

SMILES: CC1(C)N=C(N)N=C(N)N1c1ccc(CCC(=O)Nc2ccc(S(=O)(=O)F)cc2)c(Cl)c1
- T/C (endpoint: mean survival time, dose: 6.25 mg/kg/injection, schedule: Q01DX009 (ip), vehicle: saline): 104 % of control
- T/C (endpoint: mean survival time, dose: 6.25 mg/kg/injection, schedule: Q01DX009 (ip), vehicle: water): 112 % of control
- T/C (endpoint: mean survival time, dose: 12.5 mg/kg/injection, schedule: Q01DX009 (ip), vehicle: saline): 120 % of control
- T/C (endpoint: mean survival time, dose: 12.5 mg/kg/injection, schedule: Q01DX009 (ip), vehicle: water): 112 % of control
- T/C (endpoint: mean survival time, dose: 25.0 mg/kg/injection, schedule: Q01DX009 (ip), vehicle: water): 119 % of control
- T/C (endpoint: mean survival time, dose: 50.0 mg/kg/injection, schedule: Q01DX009 (ip), vehicle: saline): 120 % of control

SMILES: CNC(=O)Nc1ccncc1
- T/C [3]: 97 % of control
- T/C [5]: 102 % of control
- T/C [6]: 102 % of control

SMILES: OC(COc1ccccc1)CN1CCCCC1 (centres undefined)
- T/C [3]: 100 % of control
- T/C [10]: 101 % of control
- T/C [5]: 100 % of control
- T/C [11]: 98 % of control
- T/C [6]: 102 % of control
- T/C [12]: 98 % of control

SMILES: CC(CC(=O)c1ccccc1)=Nc1ccccc1.CC(CC(=O)c1ccccc1)=Nc1ccccc1.[O]=[V]
- T/C (endpoint: mean survival time, dose: 50.0 mg/kg/injection, schedule: Q01DX001 (ip), vehicle: Klucel (hydroxypropylcellulose) (HPC)): 96 % of control
- T/C (endpoint: mean survival time, dose: 100.0 mg/kg/injection, schedule: Q01DX001 (ip), vehicle: Klucel (hydroxypropylcellulose) (HPC)): 88 % of control
- T/C (endpoint: mean survival time, dose: 200.0 mg/kg/injection, schedule: Q01DX001 (ip), vehicle: Klucel (hydroxypropylcellulose) (HPC)): 94 % of control
- T/C (endpoint: mean survival time, dose: 400.0 mg/kg/injection, schedule: Q01DX001 (ip), vehicle: Klucel (hydroxypropylcellulose) (HPC)): 93 % of control
- T/C (endpoint: mean survival time, dose: 800.0 mg/kg/injection, schedule: Q01DX001 (ip), vehicle: Klucel (hydroxypropylcellulose) (HPC)): 90 % of control

SMILES: COC1=CCC2=C(C1)CC(C)O2 (centres undefined)
- T/C (endpoint: mean survival time, dose: 100.0 mg/kg/injection, schedule: Q01DX009 (ip), vehicle: acetone): 102 % of control
- T/C (endpoint: mean survival time, dose: 200.0 mg/kg/injection, schedule: Q01DX009 (ip), vehicle: acetone): 107 % of control

SMILES: CC(=O)Nc1c(N)ncnc1N
- T/C [10]: 90 % of control
- T/C [11]: 93 % of control
- T/C [12]: 98 % of control

SMILES: O=C1[C@@H]2C3C=CC([C@H]4C(=O)N(CO)C(=O)[C@@H]34)[C@@H]2C(=O)N1CO
- T/C (endpoint: median survival time, dose: 25.0 mg/kg/injection, schedule: Q01DX005 (ip), vehicle: Klucel (hydroxypropylcellulose) (HPC)): 107 % of control
- T/C (endpoint: median survival time, dose: 50.0 mg/kg/injection, schedule: Q01DX005 (ip), vehicle: Klucel (hydroxypropylcellulose) (HPC)): 109 % of control
- T/C (endpoint: median survival time, dose: 200.0 mg/kg/injection, schedule: Q01DX005 (ip), vehicle: Klucel (hydroxypropylcellulose) (HPC)): 101 % of control

SMILES: Cc1cc(N=Nc2ccccc2)cc(C)c1N
- T/C [3]: 96 % of control
- T/C [10]: 97 % of control
- T/C [5]: 102 % of control
- T/C [11]: 98 % of control
- T/C [6]: 98 % of control
- T/C [12]: 110 % of control

SMILES: O=C1OC(c2ccccc2)CC1N1CCCCC1 (centres undefined)
- T/C (endpoint: mean survival time, dose: 6.25 mg/kg/injection, schedule: Q01DX009 (ip), vehicle: saline sonified): 92 % of control
- T/C (endpoint: mean survival time, dose: 12.5 mg/kg/injection, schedule: Q01DX009 (ip), vehicle: saline sonified): 101 % of control
- T/C (endpoint: mean survival time, dose: 25.0 mg/kg/injection, schedule: Q01DX009 (ip), vehicle: saline sonified): 105 % of control

SMILES: CCCCN(CCCC)CC(O)c1cc(-c2ccc(Cl)cc2)nc2c(OC)ccc(OC)c12 (centres undefined)
- T/C [10]: 98 % of control
- T/C [11]: 102 % of control
- T/C [12]: 98 % of control

SMILES: Nc1nc(=O)n(CCCOc2ccc([N+](=O)[O-])c(Cl)c2)cc1-c1ccc(Cl)c(Cl)c1
- T/C [4]: 90 % of control

SMILES: CC(C)S(=O)(=O)/C=C(\I)c1ccccc1
- T/C (endpoint: mean survival time, dose: 100.0 mg/kg/injection, schedule: Q04DX003 (ip), vehicle: saline): 100 % of control
- T/C (endpoint: mean survival time, dose: 200.0 mg/kg/injection, schedule: Q04DX003 (ip), vehicle: saline): 102 % of control

SMILES: CCCCCCCCCC(=O)Nc1ccc(C(=O)OCC)cc1
- T/C [3]: 95 % of control
- T/C [5]: 97 % of control
- T/C [6]: 98 % of control

SMILES: c1ccc2c(c1)sc1[n+]2CCS1
- T/C [13]: 113 % of control

SMILES: C[N+]([O-])(C/C=C/c1ccccc1)c1ccccc1 (centres undefined)
- T/C [13]: 101 % of control
- T/C (endpoint: mean survival time, dose: 150.0 mg/kg/injection, schedule: Q01DX001 (ip), vehicle: saline): 97 % of control
- T/C (endpoint: mean survival time, dose: 300.0 mg/kg/injection, schedule: Q01DX001 (ip), vehicle: saline): 98 % of control

SMILES: CCOC(=O)Nc1cc2c(c(N)n1)N=C(c1ccc(Cl)cc1Cl)CN2
- T/C (endpoint: median survival time, dose: 3.12 mg/kg/injection, schedule: Q01DX009 (ip), vehicle: saline with Tween-80): 106 % of control
- T/C (endpoint: median survival time, dose: 6.25 mg/kg/injection, schedule: Q01DX009 (ip), vehicle: saline with Tween-80): 112 % of control
- T/C (endpoint: median survival time, dose: 12.5 mg/kg/injection, schedule: Q01DX009 (ip), vehicle: saline with Tween-80): 114 % of control
